Measured values published in patent US10030020B2, “Spirocycle compounds and methods of making and using same” (Abide Therapeutics, Inc., priority 2016, dated 2018).
Read-outs that look alike come from different tables or passages of the source.

Key:
Type in all cases: biochemical
MAGL = MAGL (Mus musculus (Mouse), UniProt O35678); experiment: In vitro competitive activity-based protein profiling (mouse brain membrane fraction or cell lysates), MAGL band; settings: mouse proteome; for inhibition at 1 µM: read-out: MAGL % Inh 1 μM (mouse); for IC50: competitive ABPP
Chain of MAGL (O35678 whole entry): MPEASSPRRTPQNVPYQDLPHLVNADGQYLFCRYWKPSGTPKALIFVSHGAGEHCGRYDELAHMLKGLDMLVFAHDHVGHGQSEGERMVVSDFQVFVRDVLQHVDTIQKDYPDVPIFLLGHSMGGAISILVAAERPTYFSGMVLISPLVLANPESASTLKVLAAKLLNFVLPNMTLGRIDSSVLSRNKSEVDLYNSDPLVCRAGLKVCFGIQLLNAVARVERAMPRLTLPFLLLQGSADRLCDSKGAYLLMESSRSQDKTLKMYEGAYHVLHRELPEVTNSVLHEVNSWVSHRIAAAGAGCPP
Description: (§1) In Vitro Competitive Activity-Based Protein Profiling.
(§2) Proteomes (mouse brain membrane fraction or cell lysates) (50 μL, 1.0 mg/mL total protein concentration) were preincubated with varying concentrations of inhibitors at 37° C. After 30 min, FP—Rh (1.0 μL, 50 μM in DMSO) was added and the mixture was incubated for another 30 min at 37° C. Reactions were quenched with SDS loading buffer (50 μL-4×) and run on SDS-PAGE.

ABHD6 = ABHD6 (Mus musculus (Mouse), UniProt Q8R2Y0); experiment: In vitro competitive activity-based protein profiling (mouse brain membrane fraction or cell lysates), ABHD6 band; settings: for inhibition at 1 µM: read-out: ABHD6 % Inh 1 μM (mouse); for IC50: competitive ABPP
Chain of ABHD6 (Q8R2Y0 whole entry): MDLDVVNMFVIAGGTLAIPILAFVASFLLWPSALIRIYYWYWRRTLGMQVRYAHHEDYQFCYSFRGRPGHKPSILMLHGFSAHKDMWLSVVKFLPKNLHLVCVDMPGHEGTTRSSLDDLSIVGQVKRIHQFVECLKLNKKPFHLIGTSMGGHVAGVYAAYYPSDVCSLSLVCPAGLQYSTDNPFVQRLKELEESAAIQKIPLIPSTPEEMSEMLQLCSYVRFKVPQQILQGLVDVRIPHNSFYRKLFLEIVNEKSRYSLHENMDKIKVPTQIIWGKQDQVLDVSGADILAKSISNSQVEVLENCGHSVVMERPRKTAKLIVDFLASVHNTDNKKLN
Description: as §1
as §2, with “SDS-PAGE. Following gel imaging, serine hydrolase activity was determined by measuring fluorescent intensity of gel bands corresponding to MAGL, ABHD6 and FAAH using ImageJ 1.43u software.” for “SDS-PAGE.”

FAAH = FAAH (Mus musculus (Mouse), UniProt O08914); experiment: In vitro competitive activity-based protein profiling (mouse brain membrane fraction or cell lysates), FAAH band; settings: for inhibition at 1 µM: read-out: FAAH % Inh 1 μM (mouse); for IC50: competitive ABPP
Chain of FAAH (O08914 whole entry): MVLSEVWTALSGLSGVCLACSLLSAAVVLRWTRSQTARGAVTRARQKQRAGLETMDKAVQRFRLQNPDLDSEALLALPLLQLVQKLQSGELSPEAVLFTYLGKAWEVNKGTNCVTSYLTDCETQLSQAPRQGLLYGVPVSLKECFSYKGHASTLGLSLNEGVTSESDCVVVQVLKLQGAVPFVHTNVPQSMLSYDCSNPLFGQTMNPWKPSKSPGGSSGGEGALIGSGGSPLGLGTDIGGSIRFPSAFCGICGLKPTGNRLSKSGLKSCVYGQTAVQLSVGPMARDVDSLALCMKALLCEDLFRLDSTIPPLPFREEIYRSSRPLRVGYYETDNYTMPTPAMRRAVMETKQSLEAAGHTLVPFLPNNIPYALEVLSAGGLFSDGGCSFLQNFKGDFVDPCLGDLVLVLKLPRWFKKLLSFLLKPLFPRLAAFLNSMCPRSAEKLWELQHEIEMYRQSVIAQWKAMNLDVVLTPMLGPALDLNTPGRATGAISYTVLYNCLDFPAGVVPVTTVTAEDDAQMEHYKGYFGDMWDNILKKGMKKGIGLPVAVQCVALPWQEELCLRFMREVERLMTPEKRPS
Description: as §1
as §2, with “SDS-PAGE. Following gel imaging, serine hydrolase activity was determined by measuring fluorescent intensity of gel bands corresponding to MAGL, ABHD6 and FAAH using ImageJ 1.43u software.” for “SDS-PAGE.”

| SMILES | inhibition at 1 µM (MAGL) [%] | IC50 (MAGL) [µM] | inhibition at 1 µM (ABHD6; mouse proteome) [%] | IC50 (ABHD6; mouse proteome) [µM] | inhibition at 1 µM (FAAH; mouse proteome) [%] | IC50 (FAAH; mouse proteome) [µM] | inhibition at 1 µM (ABHD6; mouse) [%] | inhibition at 1 µM (FAAH; mouse) [%] |
| --- | --- | --- | --- | --- | --- | --- | --- | --- |
| O=C(OC(C(F)(F)F)C(F)(F)F)N1CCC2(CCCN2Cc2cccc(N3C4CCC3COC4)c2Cl)CC1 [Example 109, 1,1,1,3,3,3-Hexafluoropropan-2-yl 1-(3-(3-oxa-8-azabicyclo[3.2.1]octan-8-yl)-2-chlorobenzyl)-1,8-diazaspiro[4.5]decane-8-carboxylate] | > 75 | < 0.1 | < 25 | > 1 | < 25 | > 1 | – | – |
| CS(=O)(=O)N1CCCc2cccc(CN3CCCC34CCN(C(=O)OC(C(F)(F)F)C(F)(F)F)CC4)c21 [Example 143, 1,1,1,3,3,3-Hexafluoropropan-2-yl 1-((1-methanesulfonyl-1,2,3,4-tetrahydroquinolin-8-yl)methyl)-1,8-diazaspiro[4.5]decane-8-carboxylate] | > 75 | < 0.1 | < 25 | > 1 | < 25 | > 1 | – | – |
| O=C(O)c1ccc(CN2CCCC23CCN(C(=O)OC(C(F)(F)F)C(F)(F)F)CC3)cc1C(F)(F)F [Example 182, 4-((8-((1,1,1,3,3,3-Hexafluoropropan-2-yloxy)carbonyl)-1,8-diazaspiro[4.5]decan-1-yl)methyl)-2-(trifluoromethyl)benzoic acid] | – | – | < 25 | > 1 | < 25 | > 1 | – | – |
| CC1(C)CC2(CCN(C(=O)OC(C(F)(F)F)C(F)(F)F)CC2)CN1Cc1c(N2CC3COCC3C2)cccc1C(F)(F)F (stereo not shown) [Example 57, 1,1,1,3,3,3-Hexafluoropropan-2-yl 3,3-dimethyl-2-(2-(tetrahydro-1H-furo[3,4-c]pyrrol-5(3H)-yl)-6-(trifluoromethyl)benzyl)-2,8-diazaspiro[4.5]decane-8-carboxylate] | > 75 | – | < 25 | > 1 | < 25 | > 1 | – | – |
| O=C(OC(C(F)(F)F)C(F)(F)F)N1CCC2(CCN(Cc3ccc(Cl)c(N4CCOCC4)c3)C2)CC1 [Example 154, 1,1,1,3,3,3-Hexafluoropropan-2-yl 2-(4-chloro-3-morpholinobenzyl)-2,8-diazaspiro[4.5]decane-8-carboxylate] | > 75 | < 0.1 | ≥ 75 | 0.1 to 1 | < 25 | > 1 | – | – |
| CC(=O)N1CCN(c2cccc(CN3CCCC34CCN(C(=O)OC(C(F)(F)F)C(F)(F)F)CC4)c2Cl)CC1 [Example 114, 1,1,1,3,3,3-Hexafluoropropan-2-yl 1-(3-(4-acetylpiperazin-1-yl)-2-chlorobenzyl)-1,8-diazaspiro[4.5]decane-8-carboxylate] | > 75 | < 0.1 | 25 to 75 | > 1 | < 25 | > 1 | – | – |
| O=C(OC(C(F)(F)F)C(F)(F)F)N1CCC2(CCCN2Cc2ccc(C(F)(F)F)cc2OC2CCOCC2)CC1 [Example 169, 1,1,1,3,3,3-Hexafluoropropan-2-yl 1-(2-(tetrahydro-2H-pyran-4-yloxy)-4-(trifluoromethyl)benzyl)-1,8-diazaspiro[4.5]decane-8-carboxylate] | > 75 | < 0.1 | 25 to 75 | > 1 | < 25 | > 1 | – | – |
| O=C(O)c1cc(CN2CCC3(CCN(C(=O)OC(C(F)(F)F)C(F)(F)F)CC3)C2)ccc1C(F)(F)F [Example 255] | – | – | – | – | – | – | 25 to 75 | < 25 |
| Cc1cc(CN2CCCC23CCN(C(=O)OC(C(F)(F)F)C(F)(F)F)CC3)cc(C(=O)O)c1 [Example 243] | – | – | – | – | – | – | < 25 | < 25 |
| CC1(C(=O)O)CN(c2cc(C(F)(F)F)ccc2CN2CCCC23CCN(C(=O)OC(C(F)(F)F)C(F)(F)F)CC3)CCO1 (stereo not shown) [Example 260] | – | – | – | – | – | – | < 25 | < 25 |
| O=C(O)C1CCN(c2cc(F)ccc2CN2CCC3(CCN(C(=O)OC(C(F)(F)F)C(F)(F)F)CC3)C2)CC1 [Example 237] | – | – | – | – | – | – | 25 to 75 | < 25 |
| O=C(O)C1CCN(c2cc(Cl)ccc2CN2CCC3(CCN(C(=O)OC(C(F)(F)F)C(F)(F)F)CC3)C2)CC1 [Example 118, 1-(5-chloro-2-((8-(((1,1,1,3,3,3-hexafluoropropan-2-yl)oxy)carbonyl)-2,8-diazaspiro[4.5]decan-2-yl)methyl)phenyl)piperidine-4-carboxylic acid] | – | – | < 25 | > 1 | < 25 | > 1 | – | – |
| O=C(O)c1cc(CN2CCCC23CCN(C(=O)OC(C(F)(F)F)C(F)(F)F)CC3)ccc1Cl [Example 266] | – | – | – | – | – | – | < 25 | < 25 |

Continued, values first:

| inhibition at 1 µM (MAGL) [%] | IC50 (MAGL) [µM] | inhibition at 1 µM (ABHD6; mouse proteome) [%] | IC50 (ABHD6; mouse proteome) [µM] | inhibition at 1 µM (FAAH; mouse proteome) [%] | IC50 (FAAH; mouse proteome) [µM] | inhibition at 1 µM (ABHD6; mouse) [%] | inhibition at 1 µM (FAAH; mouse) [%] | SMILES |
| --- | --- | --- | --- | --- | --- | --- | --- | --- |
| > 75 | – | ≥ 75 | 0.1 to 1 | < 25 | – | – | – | CC(=O)N1CCCc2cccc(CN3CCC4(CCN(C(=O)OC(C(F)(F)F)C(F)(F)F)CC4)C3)c21 [Example 70, 1,1,1,3,3,3-Hexafluoropropan-2-yl 2-((1-acetyl-1,2,3,4-tetrahydroquinolin-8-yl)methyl)-2,8-diazaspiro[4.5]decane-8-carboxylate] |
| > 75 | 0.1 to 1 | < 25 | > 1 | < 25 | > 1 | – | – | CCN1CCN(c2cc(Cl)ccc2CN2CCCC23CCN(C(=O)OC(C(F)(F)F)C(F)(F)F)CC3)CC1 [Example 98, 1,1,1,3,3,3-Hexafluoropropan-2-yl 1-(4-chloro-2-(4-ethylpiperazin-1-yl)benzyl)-1,8-diazaspiro[4.5]decane-8-carboxylate] |
| > 75 | 0.1 to 1 | ≥ 75 | 0.1 to 1 | < 25 | > 1 | – | – | CC1(C)CC2(CCN(C(=O)OC(C(F)(F)F)C(F)(F)F)CC2)CN1Cc1cccc(N2CCOCC2)c1Cl [Example 185, 1,1,1,3,3,3-hexafluoropropan-2-yl 2-(2-chloro-3-morpholinobenzyl)-3,3-dimethyl-2,8-diazaspiro[4.5]decane-8-carboxylate] |
| > 75 | 0.1 to 1 | 25 to 75 | > 1 | < 25 | > 1 | – | – | CCN1CCc2cccc(CN3CCCC34CCN(C(=O)OC(C(F)(F)F)C(F)(F)F)CC4)c2C1 [Example 144, 1,1,1,3,3,3-Hexafluoropropan-2-yl 1-((2-ethyl-1,2,3,4-tetrahydroisoquinolin-8-yl)methyl)-1,8-diazaspiro[4.5]decane-8-carboxylate] |
| > 75 | – | ≥ 75 | – | < 25 | – | – | – | O=C(O)[C@@H]1CCCN(c2cc(CN3CCC4(CCN(C(=O)OC(C(F)(F)F)C(F)(F)F)CC4)C3)cc(C(F)(F)F)c2)C1 [Example 208] |
| > 75 | 0.1 to 1 | < 25 | > 1 | < 25 | > 1 | – | – | O=C(OC(C(F)(F)F)C(F)(F)F)N1CCC2(CCCN2Cc2cccc(OCCN3CCCC3)c2)CC1 [Example 12, 1,1,1,3,3,3-Hexafluoropropan-2-yl 1-(3-(2-(pyrrolidin-1-yl)ethoxy)benzyl)-1,8-diazaspiro[4.5]decane-8-carboxylate] |
| > 75 | < 0.1 | < 25 | > 1 | < 25 | > 1 | – | – | O=C(OC(C(F)(F)F)C(F)(F)F)N1CCC2(CCCN2Cc2ccc(Cl)c(N3CCOCC3)c2)CC1 [Example 131, 1,1,1,3,3,3-Hexafluoropropan-2-yl 1-(4-chloro-3-morpholinobenzyl)-1,8-diazaspiro[4.5]decane-8-carboxylate] |
| > 75 | < 0.1 | < 25 | > 1 | < 25 | > 1 | – | – | O=C(OC(C(F)(F)F)C(F)(F)F)N1CCC2(CCCN2Cc2cccc3c2CN(C2CC2)CC3)CC1 [Example 148, 1,1,1,3,3,3-Hexafluoropropan-2-yl 1-((2-cyclopropyl-1,2,3,4-tetrahydroisoquinolin-8-yl)methyl)-1,8-diazaspiro[4.5]decane-8-carboxylate] |
| – | – | – | – | – | – | 25 to 75 | < 25 | O=C(O)C1CCN(Cc2cc(CN3CCC4(CCN(C(=O)OC(C(F)(F)F)C(F)(F)F)CC4)C3)ccc2Cl)CC1 [Example 246] |
| – | – | – | > 1 | – | > 1 | – | – | O=C(OC(C(F)(F)F)C(F)(F)F)N1CCC2(CCCN2Cc2cc(N3CCC(C(F)(F)F)CC3)cc(C(F)(F)F)c2)CC1 [Example 44, 1,1,1,3,3,3-Hexafluoropropan-2-yl 1-(3-(trifluoromethyl)-5-(4-(trifluoromethyl)piperidin-1-yl)benzyl)-1,8-diazaspiro[4.5]decane-8-carboxylate] |
